{"source": "patent US20180353460A1", "about": "“METHODS OF TREATING UROLOGICAL DISORDERS USING SARMs” (priority 2014, published 2018)", "key": {"levator ani muscle [1]": {"system": "levator ani muscle", "test": "Levator ani muscle weight in castrated rats treated subcutaneously for 14 days", "type": "in vivo, rat", "conditions": "castrated Sprague Dawley rats, subcutaneous, 3 mg/day", "from_the_text": "At sacrifice, organs were weighed and expressed as raw organ weights. Values are expressed as average±S.D. Increased size and strength of pelvic floor muscles is one mechanism by which SARMs are believed to affect UI.\nAt sacrifice, organs were weighed and expressed as raw organ weights. Values are expressed as average±S.D."}, "[2]": {"system": "postmenopausal women with SUI", "test": "Proof of concept clinical study: 24 hour pad weight test", "type": "in vivo, human", "conditions": "for Mean Pad Weights % Reduction: week 12", "from_the_text": "(§1) Secondary Objectives: • To describe the effect of 12 weeks of treatment of Compound IX on the number of voids/day as assessed by the 3 days voiding diary. […] See Tables 2 (individual subject data) and Tables 4-6 (mean pad weight data for sites 1, 2, and 3, respectively), and FIG. 17 for mean and median reductions in pad weights from baseline to week 12 (across all sites). • To describe the effect of 12 weeks of treatment of Compound IX on SUI as assessed by the Urethral Pressure Profile (UPP). The UPP assessment was removed from the protocol because it is invasive and not standard of care. […] See summary data for all subjects across the 3 sites reported in Table 7 and FIGS. 13A and 13B. • Described is the effect of 12 weeks of treatment of Compound IX on subject reported impression of stress urinary incontinence severity as assessed by the Patient Global Impression of Severity Scale (PGI-S). See summary data for all subjects across the 3 sites reported in FIG. 12A. • Described is the effect of 12 weeks of treatment of Compound IX on subject reported impression of improvement as assessed by the Patient Global Impression of Improvement Scale (PGI-I). See summary data for all subjects across the 3 sites reported in FIG. 12B. • Described is the effect of 12 weeks of treatment of Compound IX on subject reported urogenital distress as assessed by the Urinary Distress Inventory Questionnaire (UDI-6). See summary data for all subjects across of 3 sites reported in Table 7 and FIG. 12C. • Described is the effect of 12 weeks of treatment of Compound IX on subject reported impact of urinary incontinence on daily life as assessed by the Incontinence Impact Questionnaire (IIQ-7). See summary data for all subjects across the 3 sites reported in Table 7 and FIG. 12D. • Described is the effect of 12 weeks of treatment of Compound IX on subject reported sexual function as indicated on the completion of the Female Sexual Function Index Questionnaire (FSFI). See summary data for all subjects across the 3 sites reported in Table 7 and FIG. 15. • Described is the effect of 12 weeks of treatment of Compound IX on pelvic floor muscles as measured by MRI. See FIG. 11 wherein the pelvic MRI for one representative subject on trial is reported at baseline and at 12 weeks, FIG. 16 wherein the pelvic MRI's for three representative subjects on trial are reported at baseline and at 12 weeks, and Example 19 and Table 13 which provide individual measurements of levator ani thickness, inner and outer diameter of the urethra, and endometrial thickness, and mean changes in the same from baseline to week 12.\nReported herein are data for the first 18 patients at 12 weeks for the secondary endpoints of 24 hour pad weight test (Tables 2 and 4-6, and FIG. 17) and change in levator ani muscle, urethra, and endometrium for a selected subjects from Baseline to Week 12 as measured by quantitative MRI (FIGS. 11 and 16, Table 13 and Example 19). Data collection/analysis for these and additional secondary endpoints such as frequency of daily voids, urine volume per void, and bladder stress test is still ongoing.\nOverall, the median pad weight decreased by 78%, from 31.07 grams at baseline to 6.97 grams at week 12; whereas mean pad weights decreased by 71% from 74.26 grams at baseline to 21.4 grams at week 12."}, "[3]": {"system": "postmenopausal women with SUI", "test": "Proof of concept clinical study: quality of life questionnaires (FSFI, UDI-6, IIQ-7, MESA, PGI-I, PGI-S)", "type": "in vivo, human", "from_the_text": "as §1\nThe data were collected from 18 patients at 12 weeks. Data collection/analysis for additional secondary endpoints are ongoing. Women reported improved quality of life measurements in each of the five instruments collected in the study, including the Patient Global Impression of Improvement (PGI-I) and Female Sexual Function Index (FSFI). FIG. 15 provides the FSFI overall scores from baseline to 16 weeks.\nThe QOL measurements are described in greater detail above and are well-known and validated measures."}, "[4]": {"system": "levator ani muscle, urethra and endometrium", "test": "Proof of concept clinical study: quantitative pelvic MRI", "type": "in vivo, human", "from_the_text": "as §1\nQuantitative MRI was used to visualize the pelvic floor of all post-menopausal subjects with SUI.\nIn a continuation of the same study from Example 3, quantitative MRI was used to visualize the pelvic floor of 17 post-menopausal subjects with SUI. MRI was used to visualize and measure the mean thickness of the levator ani muscle, inner and outer diameter of the urethra, and the endometrial thickness of patients on trial at baseline and at the MRI visits approximately 12 weeks after baseline (exact times between baseline and second MRI are given). All data analysis used a significance value of 0.05 with one-tailed paired t-test. The mean change in each measurement and the statistical significance calculation for each value are given below: […]"}, "levator ani muscle [5]": {"system": "levator ani muscle", "test": "Earlier male rat model with castrate levels of serum testosterone", "type": "in vivo", "from_the_text": "Extensive clinical data related to the use of Compound IX are described below; however, there are both preclinical and clinical data supporting the specific investigation of Compound IX for the treatment of SUI. Among the preclinical findings are that Compound IX has androgenic and anabolic activity in male and female rat models. […] These studies together provide an approximation of the expected effect of Compound IX, since currently there are no data in female models regarding levator ani hypertrophy or stress urinary incontinence. […] Based upon these preclinical and clinical analyses, a significant growth/bulking of the levator ani in females with SUI was anticipated, which may also result in improvements in associated symptoms, and are therefore the focus of the study outlined herein."}, "[6]": {"conditions": "17 subjects, baseline to about week 12"}, "[7]": {"conditions": "individual patients, about 12 weeks"}}, "note": "Where “and” joins values, the source holds several entries; their conditions need not be identical. Equal entries are not always repeated."}
{"smiles": "C[C@](O)(COc1ccc(C#N)cc1)C(=O)Nc1ccc(C#N)c(C(F)(F)F)c1", "note": "[Compound IX, (S)—N-(4-Cyano-3-(trifluoromethyl)phenyl)-3-(4-cyanophenoxy)-2-hydroxy-2-methylpropanamide]", "values": [{"measurement": "levator ani muscle weight", "setting": "levator ani muscle [1]", "result": "elicits hypertrophy of the levator ani muscle"}, {"measurement": "Mean Pad Weights % Reduction", "setting": "[2]; Site 1 (n = 10)", "result": 77, "unit": "%"}, {"measurement": "Mean Pad Weights % Reduction", "setting": "[2]; Site 2 (n = 5)", "result": 66, "unit": "%"}, {"measurement": "Mean Pad Weights % Reduction", "setting": "[2]; Site 3 (n = 2)", "result": 74, "unit": "%"}, {"measurement": "decrease of mean pad weight at week 12", "setting": "[2]; all sites", "result": "71% and 78%"}, {"measurement": "decrease of median pad weight at week 12", "setting": "[2]; all sites", "result": "78% and 71%"}, {"measurement": "median pad weight at week 12", "setting": "[2]; baseline 31.07 grams", "result": 6.97, "unit": "grams"}, {"measurement": "mean pad weight at week 12", "setting": "[2]; baseline 74.26 grams", "result": 21.4, "unit": "grams"}, {"measurement": "Pad Weights at Week 12", "setting": "[2]; individual patients, 3 mg/day p.o., 24 hour pad weight", "result": "7.31 grams and 7.74 grams and 4.54 grams and 26.93 grams and 3.58 grams and −2.3 grams and 204.4 grams and 14.3 grams and 10.1 grams and 29 grams and 6.9 grams and 5.63 grams and 3.9 grams and 6.13 grams and 7.04 grams and 37.27 grams and 6.48 grams and 6.71 grams"}, {"measurement": "% Reduction in pad weight (Week 12)", "setting": "[2]; individual patients, week 12 vs baseline", "result": "88% and 55% and 52% and 45% and 98% (2×) and “126%” and 51% and 82% and 75% and 81% and 91% (2×) and 59% and 80% and 27%"}, {"measurement": "patients reporting moderate symptoms on PGI-S", "setting": "[3]; 12 weeks, 12 patients moderate or severe at baseline, none severe at 12 weeks", "result": 3, "unit": "patients"}, {"measurement": "MESA Urge median score at 12 weeks", "setting": "[3]; 18 patients, baseline 56", "result": 22}, {"measurement": "MESA Stress median score at 12 weeks", "setting": "[3]; 18 patients, baseline 79.5", "result": 44.5}, {"measurement": "UDI-6 median score at 12 weeks", "setting": "[3]; scale range 0-100, baseline 45.83", "result": 31.25}, {"measurement": "IIQ-7 median score at 12 weeks", "setting": "[3]; scale range 0-100, baseline 50.00", "result": 11.90}, {"measurement": "FSFI median score at 12 weeks", "setting": "[3]; scale range 2-36, baseline 15.90", "result": "28.05 and 28.00 and 28.20"}, {"measurement": "patients with improved PGI-I scores", "setting": "[3]; week 12", "result": "17 of 18"}, {"measurement": "mean change in levator ani muscle thickness", "setting": "[4]; 17 subjects, baseline 4.79 mm to week 12, p=0.006", "result": 1.15, "unit": "mm"}, {"measurement": "mean change in urethra inner diameter", "setting": "[4]; [6]", "result": 0.07, "unit": "cm"}, {"measurement": "mean change in urethra outer diameter", "setting": "[4]; [6]", "result": 0.07, "unit": "cm"}, {"measurement": "Endometrial stripe, follow up MRI", "setting": "[4]; [7]", "result": "2 mm (9×) and 3 mm (2×) and 5 mm and 4 mm (2×)"}, {"measurement": "Mean levator ani (LA) thickness at the level of the proximal urethra, follow up MRI", "setting": "[4]; [7]", "result": "4 mm (3×) and 5 mm (3×) and 6 mm (4×) and 1 mm and 6.5 mm and 8 mm and 10.5 mm and 7 mm (2×) and 10 mm"}, {"measurement": "Urethra inner diameter, follow up MRI", "setting": "[4]; [7]", "result": "1.4 cm (2×) and 1.1 cm (3×) and 1.2 cm (2×) and 1 cm (4×) and 0.9 cm (2×) and 1.3 cm (4×)"}, {"measurement": "Urethra outer diameter, follow up MRI", "setting": "[4]; [7]", "result": "1.7 cm (2×) and 1.6 cm (5×) and 1.8 cm (3×) and 1.4 cm (2×) and 1.2 cm and 2 cm and 1.9 cm and 1.3 cm (2×)"}, {"measurement": "mean increase in inner urethral muscle diameter", "setting": "[4]; week 12, baseline 10.7 mm, p=0.002", "result": 0.7, "unit": "mm"}, {"measurement": "mean increase in outer urethral muscle diameter", "setting": "[4]; week 12, baseline 15.4 mm, p=0.0003", "result": 0.7, "unit": "mm"}, {"measurement": "hypertrophy of the levator ani muscle", "setting": "levator ani muscle [5]", "result": "approximately 120 % of an intact male"}]}
